Measurements: patent US11541060B2, “Pharmaceutical compositions for treating pain” (FOREVER CHEER INTERNATIONAL LIMITED, priority 2017, dated 2023)
“Also recorded” adds a separate entry of the source.

Columns and labels:
[1] = test system: anxiety caused by nerve injury in mice; experiment: Anxiety behavior test (EPM) after nerve injury; type: in vivo; conditions: FIG. 6
[2] = test system: morphine-induced place preference in mice; experiment: Conditioned place preference (CPP) to morphine; type: in vivo
[3] = test system: behavioral itching (scratching) response in mice; experiment: Itching response to intradermal compound 48/80; type: in vivo; conditions: compound 48/80 100 μg/50 μl intradermal, FIG. 7
[4] = test system: morphine tolerance in mice; experiment: Morphine tolerance after repeated morphine injections (hotplate, tail-flick); conditions: mouse, in vivo
post-LTP in ACC [5] = conditions: recent report (Chen et al., 2014); cited from earlier work
pre-LTP in ACC = pre-LTP in ACC cortical slices; type: cell-based, adult mice; conditions: 25 μM (SQ22356 'same dose'; NB011 concentration not given), FIG. 1B/FIG. 2
[6] = target: adenylyl cyclase subtype 1 (AC1) (Homo sapiens, UniProt Q08828); experiment: cAMP assay in AC1 expressing cell line (biochemical screening for AC1 & 8 inhibitors); type: cell-based; conditions: for inhibition of AC1 activity (in words): 100 μM; for inhibition at 100 µM: read-out: Percent Inhibition AC1
[7] = target: adenylyl cyclase subtype 8 (AC8) (Homo sapiens, UniProt P40145); experiment: cAMP assay in AC8 expressing cell line (biochemical screening for AC1 & 8 inhibitors); type: cell-based; conditions: for inhibition of AC8 activity (in words): 100 μM; for inhibition at 100 µM: read-out: Percent Inhibition AC8
post-LTP in ACC [8] = experiment: post-LTP (ACC LTP) in ACC cortical slices; type: cell-based; conditions: 25 μM, ACC slices of adult mice, FIG. 1A

Sequence of adenylyl cyclase subtype 1 (AC1) (Q08828 whole entry): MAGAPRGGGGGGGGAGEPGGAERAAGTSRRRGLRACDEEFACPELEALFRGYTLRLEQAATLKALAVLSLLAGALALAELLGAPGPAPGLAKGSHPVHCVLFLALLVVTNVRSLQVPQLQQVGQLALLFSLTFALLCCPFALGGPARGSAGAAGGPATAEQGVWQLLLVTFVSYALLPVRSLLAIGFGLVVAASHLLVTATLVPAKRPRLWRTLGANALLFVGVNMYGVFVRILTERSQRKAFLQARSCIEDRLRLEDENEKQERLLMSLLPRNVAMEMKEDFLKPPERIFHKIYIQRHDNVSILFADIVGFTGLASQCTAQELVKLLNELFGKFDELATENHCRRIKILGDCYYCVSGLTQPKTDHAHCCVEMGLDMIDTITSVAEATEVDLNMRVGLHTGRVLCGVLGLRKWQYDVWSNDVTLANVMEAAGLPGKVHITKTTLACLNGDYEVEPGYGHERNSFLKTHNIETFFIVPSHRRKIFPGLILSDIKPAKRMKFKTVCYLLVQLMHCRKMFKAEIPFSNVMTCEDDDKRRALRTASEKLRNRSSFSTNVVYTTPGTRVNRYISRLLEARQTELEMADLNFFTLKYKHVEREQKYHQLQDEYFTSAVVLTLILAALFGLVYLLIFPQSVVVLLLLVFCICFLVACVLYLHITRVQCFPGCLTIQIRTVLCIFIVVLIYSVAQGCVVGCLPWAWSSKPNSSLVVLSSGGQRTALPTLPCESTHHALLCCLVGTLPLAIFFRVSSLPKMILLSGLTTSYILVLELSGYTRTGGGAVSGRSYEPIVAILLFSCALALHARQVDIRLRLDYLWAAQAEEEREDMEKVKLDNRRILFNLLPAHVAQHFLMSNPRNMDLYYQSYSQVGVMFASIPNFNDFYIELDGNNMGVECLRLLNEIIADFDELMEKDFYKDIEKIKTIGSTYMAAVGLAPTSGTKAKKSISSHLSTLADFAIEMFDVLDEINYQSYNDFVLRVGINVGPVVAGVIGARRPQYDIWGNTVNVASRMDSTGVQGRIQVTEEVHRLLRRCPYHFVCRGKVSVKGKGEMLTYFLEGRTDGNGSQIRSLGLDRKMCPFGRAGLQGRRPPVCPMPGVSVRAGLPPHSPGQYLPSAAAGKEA
Sequence of adenylyl cyclase subtype 8 (AC8) (P40145 whole entry, species assumed): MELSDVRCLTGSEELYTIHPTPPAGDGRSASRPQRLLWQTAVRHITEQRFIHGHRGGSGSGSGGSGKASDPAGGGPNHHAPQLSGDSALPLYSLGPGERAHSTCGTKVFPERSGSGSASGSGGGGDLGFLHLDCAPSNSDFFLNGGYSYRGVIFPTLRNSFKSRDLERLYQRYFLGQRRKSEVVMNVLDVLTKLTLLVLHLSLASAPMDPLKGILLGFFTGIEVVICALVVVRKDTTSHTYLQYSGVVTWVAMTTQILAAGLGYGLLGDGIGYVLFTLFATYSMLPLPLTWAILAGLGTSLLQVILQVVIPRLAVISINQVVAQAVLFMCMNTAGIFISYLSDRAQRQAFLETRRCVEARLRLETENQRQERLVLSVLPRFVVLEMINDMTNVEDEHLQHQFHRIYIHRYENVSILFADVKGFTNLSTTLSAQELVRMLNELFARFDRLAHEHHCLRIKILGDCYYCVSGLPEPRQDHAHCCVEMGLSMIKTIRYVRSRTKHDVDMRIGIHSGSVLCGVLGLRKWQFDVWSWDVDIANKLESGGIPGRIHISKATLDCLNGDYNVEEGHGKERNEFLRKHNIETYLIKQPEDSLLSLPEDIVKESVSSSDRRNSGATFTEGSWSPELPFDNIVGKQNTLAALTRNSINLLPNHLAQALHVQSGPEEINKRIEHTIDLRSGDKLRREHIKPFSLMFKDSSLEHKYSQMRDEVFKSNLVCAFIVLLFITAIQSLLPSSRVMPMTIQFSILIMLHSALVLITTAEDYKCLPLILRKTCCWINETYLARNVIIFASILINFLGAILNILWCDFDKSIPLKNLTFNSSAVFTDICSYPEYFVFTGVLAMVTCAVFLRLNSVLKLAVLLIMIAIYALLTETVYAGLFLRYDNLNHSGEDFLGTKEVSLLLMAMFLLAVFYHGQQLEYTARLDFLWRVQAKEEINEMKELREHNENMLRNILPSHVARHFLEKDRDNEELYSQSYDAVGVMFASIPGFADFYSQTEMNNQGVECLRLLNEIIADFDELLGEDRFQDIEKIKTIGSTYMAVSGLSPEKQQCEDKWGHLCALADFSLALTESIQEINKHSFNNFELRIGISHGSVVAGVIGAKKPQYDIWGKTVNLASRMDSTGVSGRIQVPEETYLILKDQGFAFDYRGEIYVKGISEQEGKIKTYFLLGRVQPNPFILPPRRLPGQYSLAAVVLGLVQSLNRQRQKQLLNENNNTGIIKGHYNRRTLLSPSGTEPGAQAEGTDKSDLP

NCC1(CC(=O)O)CCCCC1 [GABApentin, reference compound]
anxiety caused by nerve injury (EPM test) ([1]; 100 mg/kg i.p.): Neither GABApentin (100 mg/kg, i.p.) nor SQ22356 (5 mg/kg) significantly reduced; also recorded: no significant effect
morphine-induced place preference ([2]; 100 mg/kg, morphine 10 mg/kg, after 9 days, FIG. 5): did not produce any significant effect
total scratching (itching) responses ([3]; 100 mg/kg): neither GABApentin nor SQ22356 produce any significant effect
total scratching (itching) responses ([3]; 100 mg/kg, listed as GABApention): did not cause a significant reduction
morphine tolerance / morphine analgesic effect [4]: did not produce a significant effect; also recorded: did not produce any significant effect
effect on ACC LTP (post-LTP in ACC [5]): does not affect
induction of pre-LTP (pre-LTP in ACC): not blocked

c1nc(N2CCOCC2)c2nc[nH]c2n1 [NB011, 4-(9H-purin-6-yl)morpholine]
inhibition of AC1 activity (in words) [6]: significant inhibition
inhibition at 100 µM [6]: 91 ± 3%
anxiety caused by nerve injury (EPM test) ([1]; 5 mg/kg, 7 days after injury): significant reduction; also recorded: reduced anxiety
anxiety caused by nerve injury (EPM test) ([1]; low dose 1 mg/kg, 1 mg/kg): neither NB010 nor NB011 affected anxiety
morphine-induced place preference ([2]; dose reduced to 1 mg/kg (not shown in figure)): expected effect was not produced
total scratching (itching) responses ([3]; pretreatment (dose not given)): significantly reduced
morphine tolerance / morphine analgesic effect [4]: significant greater analgesic effects; also recorded: reduced
morphine tolerance / morphine analgesic effect ([4]; 1 mg/kg): no significant effect
inhibition of AC8 activity (in words) [7]: significant inhibition
inhibition at 100 µM [7]: 86 ± 2%
induction of pre-LTP (pre-LTP in ACC): inhibit; also recorded: decrease

Nc1ncnc2c1ncn2CCNCCCCCO [NB001, 5-((2-(6-amino-9H-purin-9-yl)ethyl)amino)pentane-1-ol]
morphine-induced place preference ([2]; mouse, in vivo): significantly less time; also recorded: significant reduce; also recorded: expected effect was not produced

Nc1ncnc2c1ncn2C1CCCO1 (centres unmarked) [SQ22356, reference compound]
anxiety caused by nerve injury (EPM test) ([1]; 5 mg/kg, 7 days after injury): Neither GABApentin (100 mg/kg, i.p.) nor SQ22356 (5 mg/kg) significantly reduced; also recorded: no significant effect
morphine-induced place preference ([2]; 5 mg/kg, morphine 10 mg/kg, after 9 days, FIG. 5): did not produce any inhibition
total scratching (itching) responses ([3]; 5 mg/kg): did not show significantly reduction
morphine tolerance / morphine analgesic effect [4]: no significant effect; also recorded: did not produce any significant effect
induction of pre-LTP (pre-LTP in ACC): did not cause a significant decrease

Cc1ccc(OCCn2c(S)nc3c(N)ncnc32)cc1 [NB010]
inhibition of AC1 activity (in words) [6]: significant inhibition
inhibition at 100 µM [6]: 96 ± 4%
anxiety caused by nerve injury (EPM test) ([1]; 5 mg/kg, 7 days after injury): significant reduction; also recorded: reduced anxiety
anxiety caused by nerve injury (EPM test) ([1]; low dose 1 mg/kg, 1 mg/kg): did not significantly decrease; also recorded: neither NB010 nor NB011 affected anxiety
total scratching (itching) responses ([3]; pretreatment (dose not given)): significantly reduced
induction of post-LTP (ACC LTP) (post-LTP in ACC [8]): blocked
morphine tolerance / morphine analgesic effect [4]: significant greater analgesic effects; also recorded: reduced
morphine tolerance / morphine analgesic effect ([4]; 1 mg/kg): no significant effect
inhibition of AC8 activity (in words) [7]: significant inhibition
inhibition at 100 µM [7]: 88 ± 2%
induction of pre-LTP (pre-LTP in ACC): inhibit; also recorded: blocked
